Experimental data published in the supplement of paper PMC10307832.

Legend:
Test in all cases: relative viability (nuclei count vs DMSO), 5 days (fraction); higher = more cells survive
Neratinib + Linsitinib = compound: CCOc1cc2ncc(C#N)c(Nc3ccc(OCc4ccccn4)c(Cl)c3)c2cc1NC(=O)/C=C/CN(C)C [Neratinib] + C[C@]1(O)C[C@@H](c2nc(-c3ccc4ccc(-c5ccccc5)nc4c3)c3c(N)nccn32)C1 [Linsitinib] (partner 1 µM)
Procedure, shortened: (§1)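 Relative viability was taken as the ratio of nuclei in treated wells to nuclei in vehicle wells. Lung cancer cell lines in 1536-well plates received compounds by pin tool one day after seeding, either one drug alone or a fixed anchor-drug dose plus five library-drug doses (not always all listed) in √10 steps. Nuclei were counted on 4× images after 5 days of treatment, and values are medians of duplicate plates.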

Neratinib + Navitoclax = compound: CCOc1cc2ncc(C#N)c(Nc3ccc(OCc4ccccn4)c(Cl)c3)c2cc1NC(=O)/C=C/CN(C)C [Neratinib] + CC1(C)CCC(c2ccc(Cl)cc2)=C(CN2CCN(c3ccc(C(=O)NS(=O)(=O)c4ccc(N[C@H](CCN5CCOCC5)CSc5ccccc5)c(S(=O)(=O)C(F)(F)F)c4)cc3)CC2)C1 [Navitoclax] (partner 0.5 µM)
Procedure, shortened: as §1

Neratinib + Foretinib = compound: CCOc1cc2ncc(C#N)c(Nc3ccc(OCc4ccccn4)c(Cl)c3)c2cc1NC(=O)/C=C/CN(C)C [Neratinib] + COc1cc2c(Oc3ccc(NC(=O)C4(C(=O)Nc5ccc(F)cc5)CC4)cc3F)ccnc2cc1OCCCN1CCOCC1 [Foretinib] (partner 0.25 µM)
Procedure, shortened: as §1

Neratinib + Luminespib = compound: CCOc1cc2ncc(C#N)c(Nc3ccc(OCc4ccccn4)c(Cl)c3)c2cc1NC(=O)/C=C/CN(C)C [Neratinib] + CCNC(=O)c1noc(-c2cc(C(C)C)c(O)cc2O)c1-c1ccc(CN2CCOCC2)cc1 [Luminespib] (partner 0.01 µM)
Procedure, shortened: as §1

Cell Line	relative viability (Neratinib + Linsitinib; first compound 0.01 µM)	relative viability (Neratinib + Linsitinib; first compound 0.03162 µM)	relative viability (Neratinib + Linsitinib; first compound 0.3162 µM)	relative viability (Neratinib + Linsitinib; first compound 1 µM)	relative viability (Neratinib + Navitoclax; first compound 0.01 µM)	relative viability (Neratinib + Navitoclax; first compound 0.1 µM)	relative viability (Neratinib + Navitoclax; first compound 0.3162 µM)	relative viability (Neratinib + Navitoclax; first compound 1 µM)	relative viability (Neratinib + Foretinib; first compound 0.01 µM)	relative viability (Neratinib + Foretinib; first compound 0.03162 µM)	relative viability (Neratinib + Foretinib; first compound 0.1 µM)	relative viability (Neratinib + Foretinib; first compound 0.3162 µM)	relative viability (Neratinib + Foretinib; first compound 1 µM)	relative viability (Neratinib + Linsitinib; first compound 0.1 µM)	relative viability (Neratinib + Navitoclax; first compound 0.03162 µM)	relative viability (Neratinib + Luminespib; first compound 0.01 µM)	relative viability (Neratinib + Luminespib; first compound 0.03162 µM)	relative viability (Neratinib + Luminespib; first compound 0.1 µM)	relative viability (Neratinib + Luminespib; first compound 0.3162 µM)	relative viability (Neratinib + Luminespib; first compound 1 µM)
HCC-366	0.736	0.734	0.759	0.614	1.08	0.975	1.11	1.02	0.971	0.961	0.844	0.856	1.03	–	–	–	–	–	–	–
HCC-827	1	0.971	0.931	0.221	1.02	1	0.924	0.201	1.17	1.11	0.934	0.186	0.173	0.933	1.09	1.08	1.03	0.703	0.176	0.18
HOP-62	0.864	1.03	1.09	1.07	–	1.1	0.996	1.1	1.16	1.08	0.982	1.14	0.92	1.06	1.07	0.917	0.974	0.893	0.884	0.927
IA-LM	0.537	0.87	0.541	0.628	0.814	–	0.65	0.494	1.36	1.36	1.11	0.927	0.628	0.581	0.774	–	–	–	–	–
LC-2-ad	0.87	0.842	0.673	0.321	0.519	0.411	0.315	0.135	0.898	0.989	0.777	0.532	0.393	0.785	0.398	1.11	1.1	1.04	0.87	0.465
LCLC-97TM1	0.215	0.194	0.161	0.155	0.402	0.633	0.511	0.294	1.07	0.952	0.829	0.824	0.483	0.165	0.381	0.823	0.837	0.762	0.684	0.589
LCLC-103H	1.21	0.975	0.961	0.814	–	–	–	–	0.926	0.805	0.704	0.697	0.496	–	–	0.921	0.981	0.883	0.93	0.647
LK-2	0.464	0.521	0.339	0.214	0.944	0.859	0.639	0.342	1.27	1.6	1.24	0.958	0.656	0.71	0.97	0.183	0.21	0.197	0.18	0.125
LOU-NH91	0.871	0.831	0.504	0.529	0.682	0.517	0.374	0.279	0.971	0.82	0.644	0.542	0.504	0.656	0.582	0.38	0.328	0.338	0.331	0.287
NCI-H358	–	–	0.26	0.205	–	–	–	–	0.613	0.478	0.339	0.154	0.103	0.264	–	0.301	0.518	0.279	0.108	0.12
NCI-H650	1	0.986	–	0.577	–	–	–	–	1.1	1.03	0.952	0.873	0.884	1.03	–	0.814	0.888	0.621	0.722	0.392
NCI-H661	0.621	0.536	0.299	0.197	–	–	–	–	1.05	1.06	0.836	0.489	0.364	0.499	–	0.966	0.905	0.593	0.587	0.372
NCI-H1299	0.996	1.07	0.944	–	1.04	0.986	1.07	1.11	1.1	1.09	1.07	1.12	1.12	0.846	1.06	–	–	–	–	–
NCI-H1563	1.22	1.24	1.1	0.998	–	–	–	–	0.858	0.942	0.885	0.844	0.75	0.993	–	0.57	0.498	0.488	0.503	0.484
NCI-H1650	–	–	–	–	1.26	1.1	1.07	1.06	1.1	1.29	0.744	0.657	0.602	–	1.35	0.201	0.186	0.204	0.228	0.203
NCI-H1703	0.636	0.641	0.516	0.509	1.46	0.929	0.884	0.286	0.447	0.318	0.356	0.327	0.218	0.659	0.921	–	–	–	–	–
NCI-H1792	0.505	0.468	0.489	0.463	0.622	0.612	–	0.591	–	–	–	–	–	0.53	0.833	0.458	0.466	0.365	0.358	0.381
NCI-H2170	–	–	–	–	0.391	0.274	0.196	0.184	1.04	1.07	0.909	0.303	0.27	–	0.377	0.727	0.637	0.365	0.271	0.304
NCI-H2342	–	–	–	–	–	–	–	–	1.08	0.993	0.891	0.703	0.525	–	–	0.72	0.717	0.712	0.621	–
SW 900	–	–	–	–	–	–	–	–	0.937	0.917	–	0.865	0.709	–	–	0.184	0.157	0.148	0.194	0.169
